Results: ChEMBL document CHEMBL4507290 (2021)

Tests used:
[1] = target: Fibroblast growth factor receptor 1 (Homo sapiens) (UniProt P11362); details: Compound concentration 1000.0 nM
[2] = target: Serine/threonine-protein kinase Nek11 (Homo sapiens) (UniProt Q8NG66); details: Compound concentration 1000.0 nM
[3] = tested on: Fibroblast growth factor receptor 3 (Homo sapiens), P22607 [G697C]; details: Compound concentration 1000.0 nM
[4] = target: Serine/threonine-protein kinase DCLK3 (Homo sapiens) (UniProt Q9C098); details: Compound concentration 1000.0 nM
[5] = target: STE20-like serine/threonine-protein kinase (Homo sapiens) (UniProt Q9H2G2); details: Compound concentration 1000.0 nM
[6] = target: Dual specificity testis-specific protein kinase 1 (Homo sapiens) (UniProt Q15569); details: Compound concentration 1000.0 nM
[7] = target: Fibroblast growth factor receptor 3 (Homo sapiens) (UniProt P22607); details: Compound concentration 1000.0 nM
[8] = target: Serine/threonine-protein kinase Nek3 (Homo sapiens) (UniProt P51956); details: Compound concentration 1000.0 nM
[9] = target: Aurora kinase B (Homo sapiens) (UniProt Q96GD4); details: Compound concentration 1000.0 nM
[10] = target: D(3) dopamine receptor (Homo sapiens) (UniProt P35462); details: Compound concentration 10.0 uM
[11] = target: Serine/threonine-protein kinase D3 (Homo sapiens) (UniProt O94806); details: Compound concentration 1000.0 nM
[12] = target: Serine/threonine-protein kinase MRCK gamma (Homo sapiens) (UniProt Q6DT37); details: Compound concentration 1000.0 nM
[13] = target: Serine/threonine-protein kinase PknB (Mycobacterium tuberculosis) (UniProt P9WI81); details: Compound concentration 1000.0 nM
[14] = target: Mu-type opioid receptor (Homo sapiens) (UniProt P35372); details: Compound concentration 10.0 uM
[15] = target: Serine/threonine-protein kinase PLK4 (Homo sapiens) (UniProt O00444); details: Compound concentration 1000.0 nM
[16] = target: Serine/threonine-protein kinase Sgk3 (Homo sapiens) (UniProt Q96BR1); details: Compound concentration 1000.0 nM
[17] = target: Serine/threonine-protein kinase SBK1 (Homo sapiens) (UniProt Q52WX2); details: Compound concentration 1000.0 nM
[18] = target: Atypical kinase COQ8A, mitochondrial (Homo sapiens) (UniProt Q8NI60); details: Compound concentration 1000.0 nM
[19] = target: Epidermal growth factor receptor (Homo sapiens) (UniProt P00533); details: Compound concentration 1000.0 nM
[20] = target: Serine/threonine-protein kinase Nek9 (Homo sapiens) (UniProt Q8TD19); details: Compound concentration 1000.0 nM
[21] = tested on: Tyrosine-protein kinase ABL1 (Homo sapiens), P00519 [H396P]; details: Compound concentration 1000.0 nM
[22] = target: 5-hydroxytryptamine receptor 2A (Homo sapiens) (UniProt P28223); details: Compound concentration 10.0 uM
[23] = target: Serine/threonine-protein kinase 36 (Homo sapiens) (UniProt Q9NRP7); details: Compound concentration 1000.0 nM
[24] = target: Cyclin-dependent kinase 8 (Homo sapiens) (UniProt P49336); details: Compound concentration 1000.0 nM
[25] = target: Myosin light chain kinase (Homo sapiens) (UniProt Q32MK0); details: Compound concentration 1000.0 nM
[26] = target: Interleukin-1 receptor-associated kinase 1 (Homo sapiens) (UniProt P51617); details: Compound concentration 1000.0 nM
[27] = target: Casein kinase I isoform gamma-3 (Homo sapiens) (UniProt Q9Y6M4); details: Compound concentration 1000.0 nM
[28] = target: Glycogen synthase kinase-3 beta (Homo sapiens) (UniProt P49841); details: Compound concentration 1000.0 nM
[29] = target: Serine/threonine-protein kinase MRCK alpha (Homo sapiens) (UniProt Q5VT25); details: Compound concentration 1000.0 nM
[30] = target: G protein-coupled receptor kinase 3 (Homo sapiens) (UniProt P35626); details: Compound concentration 1000.0 nM
[31] = target: Casein kinase II subunit alpha (Homo sapiens) (UniProt P68400); details: Compound concentration 1000.0 nM
[32] = target: Mitogen-activated protein kinase kinase kinase 20 (Homo sapiens) (UniProt Q9NYL2); details: Compound concentration 1000.0 nM
[33] = target: Serine/threonine-protein kinase pim-1 (Homo sapiens) (UniProt P11309); details: Compound concentration 1000.0 nM
[34] = target: Mitogen-activated protein kinase 4 (Homo sapiens) (UniProt P31152); details: Compound concentration 1000.0 nM
[35] = tested on: Tyrosine-protein kinase ABL1 (Homo sapiens), P00519 [F317I]; details: Compound concentration 1000.0 nM
[36] = target: Serine/threonine-protein kinase Sgk2 (Homo sapiens) (UniProt Q9HBY8); details: Compound concentration 1000.0 nM
[37] = target: Tyrosine-protein kinase Mer (Homo sapiens) (UniProt Q12866); details: Compound concentration 1000.0 nM
[38] = target: Eukaryotic translation initiation factor 2-alpha kinase 1 (Homo sapiens) (UniProt Q9BQI3); details: Compound concentration 1000.0 nM
[39] = target: BDNF/NT-3 growth factors receptor (Homo sapiens) (UniProt Q16620); details: Compound concentration 1000.0 nM
[40] = target: Serine/threonine-protein kinase SIK3 (Homo sapiens) (UniProt Q9Y2K2); details: Compound concentration 1000.0 nM
[41] = target: Death-associated protein kinase 2 (Homo sapiens) (UniProt Q9UIK4); details: Compound concentration 1000.0 nM
[42] = target: Serine/threonine-protein kinase 24 (Homo sapiens) (UniProt Q9Y6E0); details: Compound concentration 1000.0 nM
[43] = target: MAP/microtubule affinity-regulating kinase 3 (Homo sapiens) (UniProt P27448); details: Compound concentration 1000.0 nM
[44] = target: Serine/threonine-protein kinase PAK 4 (Homo sapiens) (UniProt O96013); details: Compound concentration 1000.0 nM
[45] = target: Cyclin-dependent kinase 19 (Homo sapiens) (UniProt Q9BWU1); details: Compound concentration 1000.0 nM
[46] = target: BMP-2-inducible protein kinase (Homo sapiens) (UniProt Q9NSY1); details: Compound concentration 1000.0 nM

Sequence of D(3) dopamine receptor (Homo sapiens) (P35462 whole entry): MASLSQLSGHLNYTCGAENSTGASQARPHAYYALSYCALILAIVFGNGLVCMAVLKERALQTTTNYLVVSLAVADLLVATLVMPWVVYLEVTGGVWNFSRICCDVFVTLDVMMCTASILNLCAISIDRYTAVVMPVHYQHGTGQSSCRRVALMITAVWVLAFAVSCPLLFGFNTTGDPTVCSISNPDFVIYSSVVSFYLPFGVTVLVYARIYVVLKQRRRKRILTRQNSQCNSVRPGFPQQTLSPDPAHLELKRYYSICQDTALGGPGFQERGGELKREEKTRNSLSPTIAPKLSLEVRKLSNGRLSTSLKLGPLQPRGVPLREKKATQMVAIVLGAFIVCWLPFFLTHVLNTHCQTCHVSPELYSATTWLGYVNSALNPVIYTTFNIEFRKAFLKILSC
Sequence of Serine/threonine-protein kinase MRCK alpha (Homo sapiens) (Q5VT25 whole entry): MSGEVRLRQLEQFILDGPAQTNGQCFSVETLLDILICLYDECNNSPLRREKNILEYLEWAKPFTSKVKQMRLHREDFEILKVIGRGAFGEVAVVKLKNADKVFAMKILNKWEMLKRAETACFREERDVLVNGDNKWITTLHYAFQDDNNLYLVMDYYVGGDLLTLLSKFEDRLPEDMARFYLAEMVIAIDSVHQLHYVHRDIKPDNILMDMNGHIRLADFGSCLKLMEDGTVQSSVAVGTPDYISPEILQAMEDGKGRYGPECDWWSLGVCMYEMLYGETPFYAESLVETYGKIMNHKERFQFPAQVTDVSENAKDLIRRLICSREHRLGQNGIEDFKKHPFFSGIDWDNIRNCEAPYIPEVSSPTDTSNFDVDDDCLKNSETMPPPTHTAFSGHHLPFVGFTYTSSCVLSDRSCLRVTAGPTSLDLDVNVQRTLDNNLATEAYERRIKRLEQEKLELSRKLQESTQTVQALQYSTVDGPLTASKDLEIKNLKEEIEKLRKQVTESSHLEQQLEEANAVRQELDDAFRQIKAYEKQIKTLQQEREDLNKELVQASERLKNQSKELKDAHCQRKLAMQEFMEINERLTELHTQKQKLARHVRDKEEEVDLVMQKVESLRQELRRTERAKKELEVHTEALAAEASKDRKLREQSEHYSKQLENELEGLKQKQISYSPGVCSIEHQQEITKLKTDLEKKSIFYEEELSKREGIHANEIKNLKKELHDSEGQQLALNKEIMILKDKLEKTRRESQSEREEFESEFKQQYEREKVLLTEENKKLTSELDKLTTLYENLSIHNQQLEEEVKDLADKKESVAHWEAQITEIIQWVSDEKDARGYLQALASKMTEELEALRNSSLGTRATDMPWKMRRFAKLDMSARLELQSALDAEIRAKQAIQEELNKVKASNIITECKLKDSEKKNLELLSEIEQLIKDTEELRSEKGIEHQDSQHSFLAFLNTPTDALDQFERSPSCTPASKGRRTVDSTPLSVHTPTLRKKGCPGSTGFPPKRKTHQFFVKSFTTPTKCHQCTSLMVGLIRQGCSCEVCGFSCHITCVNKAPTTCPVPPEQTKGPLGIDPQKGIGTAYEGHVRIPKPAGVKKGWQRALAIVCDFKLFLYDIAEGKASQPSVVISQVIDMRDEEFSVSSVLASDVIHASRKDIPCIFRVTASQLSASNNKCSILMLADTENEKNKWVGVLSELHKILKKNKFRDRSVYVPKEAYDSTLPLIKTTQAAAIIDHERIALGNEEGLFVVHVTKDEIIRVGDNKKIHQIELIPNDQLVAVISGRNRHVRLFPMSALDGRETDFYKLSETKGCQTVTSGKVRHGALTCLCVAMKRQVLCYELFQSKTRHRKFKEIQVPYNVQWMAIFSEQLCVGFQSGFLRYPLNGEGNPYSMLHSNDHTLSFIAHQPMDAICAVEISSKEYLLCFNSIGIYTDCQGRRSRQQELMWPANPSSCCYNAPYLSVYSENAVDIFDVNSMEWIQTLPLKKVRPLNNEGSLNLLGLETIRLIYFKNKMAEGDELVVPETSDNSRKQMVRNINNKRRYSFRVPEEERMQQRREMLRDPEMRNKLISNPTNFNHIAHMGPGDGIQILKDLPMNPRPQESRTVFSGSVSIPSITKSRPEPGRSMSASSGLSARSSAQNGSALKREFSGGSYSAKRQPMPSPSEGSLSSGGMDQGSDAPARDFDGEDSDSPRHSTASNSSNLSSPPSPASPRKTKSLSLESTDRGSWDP
Sequence of Serine/threonine-protein kinase Nek11 (Homo sapiens) (Q8NG66 whole entry): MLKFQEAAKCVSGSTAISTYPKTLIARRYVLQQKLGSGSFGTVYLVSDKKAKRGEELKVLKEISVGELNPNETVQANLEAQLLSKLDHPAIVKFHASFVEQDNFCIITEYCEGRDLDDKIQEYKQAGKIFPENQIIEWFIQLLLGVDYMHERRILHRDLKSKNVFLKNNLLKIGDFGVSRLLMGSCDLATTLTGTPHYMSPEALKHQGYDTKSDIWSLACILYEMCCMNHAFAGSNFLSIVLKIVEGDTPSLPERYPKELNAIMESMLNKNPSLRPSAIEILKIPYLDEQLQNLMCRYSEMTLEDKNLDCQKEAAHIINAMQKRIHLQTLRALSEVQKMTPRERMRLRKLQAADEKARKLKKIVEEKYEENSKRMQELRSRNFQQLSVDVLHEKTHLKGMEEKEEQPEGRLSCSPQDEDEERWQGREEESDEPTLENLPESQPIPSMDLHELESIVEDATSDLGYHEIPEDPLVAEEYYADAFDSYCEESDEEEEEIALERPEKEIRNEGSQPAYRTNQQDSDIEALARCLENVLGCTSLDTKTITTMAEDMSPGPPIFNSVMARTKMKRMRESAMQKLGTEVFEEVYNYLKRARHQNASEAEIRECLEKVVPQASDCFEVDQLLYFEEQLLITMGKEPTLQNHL
Sequence of 5-hydroxytryptamine receptor 2A (Homo sapiens) (P28223 whole entry): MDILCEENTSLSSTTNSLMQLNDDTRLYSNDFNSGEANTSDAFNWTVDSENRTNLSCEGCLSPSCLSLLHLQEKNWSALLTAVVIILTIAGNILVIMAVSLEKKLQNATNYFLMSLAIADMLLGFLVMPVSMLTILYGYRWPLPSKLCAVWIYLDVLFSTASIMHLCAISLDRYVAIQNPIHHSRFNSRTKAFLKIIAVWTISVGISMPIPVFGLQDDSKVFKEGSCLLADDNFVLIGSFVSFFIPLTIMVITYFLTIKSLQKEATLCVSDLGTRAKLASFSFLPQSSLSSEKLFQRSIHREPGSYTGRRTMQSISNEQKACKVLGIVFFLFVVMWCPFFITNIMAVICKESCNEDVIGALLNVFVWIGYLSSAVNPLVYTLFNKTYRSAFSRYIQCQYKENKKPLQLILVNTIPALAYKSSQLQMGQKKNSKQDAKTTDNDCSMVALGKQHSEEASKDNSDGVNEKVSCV
Sequence of STE20-like serine/threonine-protein kinase (Homo sapiens) (Q9H2G2 whole entry, looked up): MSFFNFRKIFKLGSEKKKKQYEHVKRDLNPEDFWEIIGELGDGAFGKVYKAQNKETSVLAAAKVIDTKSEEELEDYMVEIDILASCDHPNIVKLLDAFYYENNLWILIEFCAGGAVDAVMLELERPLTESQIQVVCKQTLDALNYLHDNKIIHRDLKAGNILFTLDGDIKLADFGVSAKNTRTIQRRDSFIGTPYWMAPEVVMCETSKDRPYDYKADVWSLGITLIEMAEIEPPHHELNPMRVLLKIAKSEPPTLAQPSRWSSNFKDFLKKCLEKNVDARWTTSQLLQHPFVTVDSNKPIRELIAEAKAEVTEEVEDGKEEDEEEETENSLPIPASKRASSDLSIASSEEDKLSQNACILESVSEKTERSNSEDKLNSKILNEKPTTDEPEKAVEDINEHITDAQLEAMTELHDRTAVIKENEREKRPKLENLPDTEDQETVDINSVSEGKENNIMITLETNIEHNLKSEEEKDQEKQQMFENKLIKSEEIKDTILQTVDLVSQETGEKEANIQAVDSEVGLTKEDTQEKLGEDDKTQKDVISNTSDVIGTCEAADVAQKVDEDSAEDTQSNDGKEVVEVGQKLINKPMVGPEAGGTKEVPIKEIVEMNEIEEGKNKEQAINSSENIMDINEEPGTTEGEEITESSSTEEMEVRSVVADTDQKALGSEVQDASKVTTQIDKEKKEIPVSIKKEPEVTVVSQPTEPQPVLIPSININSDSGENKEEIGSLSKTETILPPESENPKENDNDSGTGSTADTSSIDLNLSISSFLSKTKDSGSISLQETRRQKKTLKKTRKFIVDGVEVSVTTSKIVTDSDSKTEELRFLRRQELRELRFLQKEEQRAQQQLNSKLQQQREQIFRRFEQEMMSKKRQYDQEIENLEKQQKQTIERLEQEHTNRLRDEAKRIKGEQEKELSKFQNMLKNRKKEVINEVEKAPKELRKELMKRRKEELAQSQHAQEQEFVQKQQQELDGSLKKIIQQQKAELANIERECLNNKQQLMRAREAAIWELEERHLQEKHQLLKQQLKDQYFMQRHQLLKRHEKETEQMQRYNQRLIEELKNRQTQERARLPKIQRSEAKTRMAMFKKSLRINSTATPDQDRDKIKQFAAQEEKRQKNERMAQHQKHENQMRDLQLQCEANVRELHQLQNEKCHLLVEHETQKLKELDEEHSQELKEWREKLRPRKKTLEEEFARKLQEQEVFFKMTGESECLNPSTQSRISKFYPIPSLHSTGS
Sequence of Serine/threonine-protein kinase pim-1 (Homo sapiens) (P11309 whole entry, looked up): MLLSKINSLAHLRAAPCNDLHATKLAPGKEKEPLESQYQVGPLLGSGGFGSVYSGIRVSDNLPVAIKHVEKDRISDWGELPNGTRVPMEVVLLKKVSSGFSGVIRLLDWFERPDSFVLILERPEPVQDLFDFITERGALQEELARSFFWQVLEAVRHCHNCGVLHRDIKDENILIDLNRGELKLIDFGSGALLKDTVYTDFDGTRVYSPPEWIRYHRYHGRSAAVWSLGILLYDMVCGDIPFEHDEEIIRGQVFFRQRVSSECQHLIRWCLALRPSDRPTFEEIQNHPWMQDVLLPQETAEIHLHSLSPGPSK

CN([C@@H]1CCc2c(CC(=O)O)c3cc(S(C)(=O)=O)ccc3n2C1)S(=O)(=O)c1ccc(F)cc1
inactive: residual activity [1] 100% | residual activity [2] 100% | residual activity [3] 90% | residual activity [4] 71% | residual activity [5] 100% | residual activity [6] 73% | residual activity [7] 100% | residual activity [8] 59% | residual activity [9] 83% | inhibition [10] -5.72% | residual activity [11] 100% | residual activity [12] 93% | residual activity [13] 100% | inhibition [14] 7.34% | residual activity [15] 100% | residual activity [16] 85% | residual activity [17] 100% | residual activity [18] 87% | residual activity [19] 100% | residual activity [20] 81% | residual activity [21] 78% | inhibition [22] 7.27% | residual activity [23] 98% | residual activity [24] 100% | residual activity [25] 100% | residual activity [26] 91% | residual activity [27] 100% | residual activity [28] 85% | residual activity [29] 100% | residual activity [30] 81% | residual activity [31] 91% | residual activity [32] 80% | residual activity [33] 100% | residual activity [34] 100% | residual activity [35] 75% | residual activity [36] 100% | residual activity [37] 100% | residual activity [38] 90% | residual activity [39] 100% | residual activity [40] 89% | residual activity [41] 100% | residual activity [42] 100% | residual activity [43] 100% | residual activity [44] 100% | residual activity [45] 100% | residual activity [46] 98%

CN([C@@H]1CCc2c(CC(=O)O)c3ccccc3n2C1)S(=O)(=O)c1ccc(F)cc1 [MK-7246]
inactive: residual activity [1] 100% | residual activity [2] 100% | residual activity [3] 100% | residual activity [4] 99% | residual activity [5] 100% | residual activity [6] 91% | residual activity [7] 100% | residual activity [8] 93% | residual activity [9] 91% | inhibition [10] -4.25% | residual activity [11] 94% | residual activity [12] 100% | residual activity [13] 100% | inhibition [14] 1.33% | residual activity [15] 100% | residual activity [16] 100% | residual activity [17] 100% | residual activity [18] 100% | residual activity [19] 95% | residual activity [20] 100% | residual activity [21] 100% | inhibition [22] -6.57% | residual activity [23] 100% | residual activity [24] 100% | residual activity [25] 95% | residual activity [26] 78% | residual activity [27] 100% | residual activity [28] 93% | residual activity [29] 100% | residual activity [30] 70% | residual activity [31] 82% | residual activity [32] 99% | residual activity [33] 96% | residual activity [34] 100% | residual activity [35] 79% | residual activity [36] 100% | residual activity [37] 100% | residual activity [38] 98% | residual activity [39] 100% | residual activity [40] 98% | residual activity [41] 100% | residual activity [42] 100% | residual activity [43] 100% | residual activity [44] 100% | residual activity [45] 94% | residual activity [46] 100%
